Source: PubChem BioAssay (NCI)
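Protocol summary: plate cells (96-well), add compound at 5 concentrations, incubate 48 h, interpolate endpoints linearly. TGI: concentration producing complete growth inhibition.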

Tests used:
Assay in all cases: NCI anticancer screen, dose series, 48 h
[1] = test system: RXF 393 renal
[2] = test system: OVCAR-4 ovarian
[3] = test system: SNB-19 CNS
[4] = test system: SR leukemia
[5] = test system: A498 renal
[6] = test system: SN12C renal
[7] = test system: UACC-257 melanoma
[8] = test system: K-562 leukemia
[9] = test system: SK-MEL-28 melanoma
[10] = test system: IGROV1 ovarian
[11] = test system: MDA-N
[12] = test system: PC-3 prostate
[13] = test system: T-47D breast
[14] = test system: MDA-MB-435

Row | Compound | TGI [1] [µM] | TGI [2] [µM] | TGI [3] [µM] | TGI [4] [µM] | TGI [5] [µM] | TGI [6] [µM] | TGI [7] [µM] | TGI [8] [µM] | TGI [9] [µM] | TGI [10] [µM] | TGI [11] [µM] | TGI [12] [µM] | TGI [13] [µM] | TGI [14] [µM]
1 | CC(=O)NNc1nc(C)c(C(=O)NNC(=O)C(=O)Nc2c(C)cccc2C(C)(C)C)s1 | > 100 | > 100 | > 100 | > 100 | > 100 | > 100 | > 100 | > 100 | > 100 | > 100 | – | – | – | –
2 | N#CCCN(CCN(CCC#N)C(=O)Nc1ccccc1)C(=O)Nc1ccccc1 | 75.3 | – | > 100 | > 100 | > 100 | > 100 | > 100 | > 100 | > 100 | > 100 | > 100 | > 100 | > 100 | –
3 | CC(=O)c1cc(C)n2c1CS[C@@H]2c1ccccc1 | 91.6 | > 100 | > 100 | > 100 | > 100 | > 100 | > 100 | > 100 | > 100 | > 100 | – | > 100 | > 100 | > 100
4 | O=C(CC1C(=O)c2ccccc2C1=C1C(=O)c2ccccc2C1=O)c1ccccc1 (stereo not drawn) | > 100 | > 100 | > 100 | – | > 100 | > 100 | > 100 | > 100 | > 100 | > 100 | – | – | – | –
5 | CCCCNC(=S)/N=C/c1c(O)c2ccccc2[nH]c1=O | > 10 | > 10 | > 10 | > 10 | > 10 | > 10 | > 10 | > 10 | > 10 | > 10 | – | > 10 | > 10 | > 10
6 | NCc1cc(O)c(O)c(O)c1 | > 100 | > 100 | > 100 | > 100 | > 100 | > 100 | > 100 | > 100 | > 100 | > 100 | – | – | – | –
7 | CC[C@@H]1/C=C/C=C/C[C@H](C)[C@@H](O)[C@](C)(O)C(=O)[C@H](C)[C@@H](O)[C@H](C)C(=O)[C@H](C)[C@@H](O)[C@H](C)/C=C/C(=O)O[C@H]2[C@@H](C)[C@@H](CC1)O[C@@]1(CC[C@@H](C)[C@@H](CC(C)O)O1)[C@@H]2C (stereo partly drawn) | 4.06 | 9.33 | 19.8 | 13 | 9.12 | 4.95 | 3.09 | > 38.2 | 25.3 | 5.96 | 6.72 | 5.05 | – | 6.89
8 | O=c1[nH]n(Cc2ccccc2Cl)c2ccccc12 | – | > 100 | > 100 | > 100 | > 100 | > 100 | > 100 | > 100 | > 100 | > 100 | > 100 | > 100 | – | > 100
9 | CC(C)(C)OC(=O)N(CCCCNCc1ccc2ccccc2c1)CCCNCc1ccc2ccccc2c1 | – | 3.19 | 3.22 | – | 3.47 | 3.32 | 3.42 | 1.11 | 3.39 | 3.21 | – | 4.06 | 3.44 | 3.47
10 | C=CCN1CN(c2ccccc2)C2(CCN(CCCC3(c4ccc(F)cc4)OCCO3)CC2)C1=O | 28.1 | – | 39.9 | 48.7 | – | 32 | 33.3 | 25.4 | 30.8 | 39.4 | – | 31.7 | 40.3 | –
11 | CC1(C)O[C@@H](CBr)C[C@H](C[C@H]2C[C@@H](O)C[C@@H](CCOCc3ccccc3)O2)O1 | – | 41.7 | 61.8 | > 100 | 48.6 | 79.4 | 37.8 | > 100 | 69.2 | 42.6 | – | 39 | 38.3 | 55.6
12 | N#Cc1nc(COCCOCc2ccc(F)cc2)oc1N | > 100 | > 100 | – | > 100 | > 100 | > 100 | > 100 | > 100 | > 100 | > 100 | – | > 100 | > 100 | > 100
13 | COc1ccc(CCNC(=O)[C@H]2CCCC[C@@H]2CCO)cc1OC | > 100 | > 100 | > 100 | > 100 | > 100 | > 100 | > 100 | > 100 | > 100 | > 100 | – | > 100 | > 100 | > 100
14 | CN(C)Cc1cc(N=Nc2ccc(Cl)cc2)ccc1OC(=O)c1ccccc1 | 30.1 | 28.5 | 29.8 | 31.8 | 31.5 | 28.2 | 35.2 | 35.8 | 29.7 | 25.9 | 30.1 | 29 | – | 29.3
